Data taken from PMC11494653, “Teixobactin “Swapmers” with L Tail Stereochemistry Retain Antibiotic Activity” (The Journal of Organic Chemistry, 2024).
In brackets after ≈: the same amount, converted by molar mass. Positions of bridges follow the written chain, without caps; N, C: chain ends. Non-standard residues stand in square brackets, D forms with d. Residues, ends and D or L forms follow the SMILES beside them. Chains are numbered I, II in the order given. d(aIle) = CC[C@H](C)[C@@H](N)C(=O)O; NMeF = CN[C@@H](Cc1ccccc1)C(=O)O; dNMeF = CN[C@H](Cc1ccccc1)C(=O)O

Experiments:
Type in all cases: cell-based
[1] = test system: Bacillus subtilis ATCC 6051; experiment: microbe, parasite or virus in culture; conditions: ATCC 6051, 16 h
Description: (§1) We determined the MIC values of these teixobactin swapmer prodrugs against the Gram-positive bacteria Bacillus subtilis, Staphylococcus epidermidis, methicillin-susceptible Staphylococcus aureus (MSSA), and methicillin-resistant Staphylococcus aureus (MRSA) in a broth microdilution assay as described previously.[9],[10] We used the antibiotic vancomycin as a positive control and the Gram-negative bacterium Escherichia coli as a negative control. The MIC values for Lys10-teixobactin 1, Lys10-teixobactin prodrug 2, Arg10-teixobactin 6, and Arg10-teixobactin prodrug 7 are shown in Table 1 for comparison with the swapmer analogues.
(§2) We performed minimum inhibitory concentration (MIC) assays as previously described.[9] A concise procedure is detailed below.
(§3) Stock solutions of teixobactin analogues were prepared gravimetrically by dissolving an appropriate amount of peptide in 20 mg/mL sterile DMSO. The stock solutions were stored at −20 °C for subsequent experiments.
(§4) Bacillus subtilis (ATCC 6051), Staphylococcus epidermidis (ATCC 14990), methicillin-susceptible Staphylococcus aureus (MSSA) (ATCC 29213), and Escherichia coli (ATCC 10798) were cultured from glycerol stocks in Mueller-Hinton broth containing 0.002% polysorbate 80 overnight in a shaking incubator at 37 °C. Methicillin-resistant Staphylococcus aureus (MRSA) (ATCC 700698) was cultured from a glycerol stock in brain hearth infusion broth containing 0.002% polysorbate 80 overnight in a shaking incubator at 37 °C. After overnight incubation, each culture was diluted with the appropriate media (containing 0.002% polysorbate 80) to 1 × 10^6 colony-forming units (CFU)/mL as previously described.[12],[15],[16] Briefly, we have previously determined the CFU/mL for each bacterium at OD600 = 0.075 for 200 μL of bacterial culture in a 96-well plate. The OD600 of each overnight culture was determined, and then each culture was diluted to OD600 = 0.075. Cultures were further diluted to achieve 1 × 10^6 CFU/mL solutions.
(§5) Aliquots of the 20 mg/mL peptide stock solutions were diluted to make a 64 μg/mL solution in Mueller-Hinton broth containing 0.002% polysorbate 80 and a 64 μg/mL solution in brain heart infusion broth containing 0.002% polysorbate 80. The solutions were mixed by pipetting to ensure homogeneity. A 200-μL aliquot of a 64 μg/mL solution was transferred to a 96-well plate. 2-fold serial dilutions were made with media containing 0.002% polysorbate 80 across the 96-well plate to achieve a final volume of 100 μL in each well (initial concentrations ranging from 64 to 0.0625 μg/mL). A 100-μL aliquot of a 1 × 10^6 CFU/mL bacterial solution was added to each well in the series, resulting in final bacterial concentrations of 5 × 10^5 CFU/mL in each well. As 100 μL of bacteria were added to each well, the concentration of peptide was also diluted 2-fold (final concentrations ranging from 32 μg/mL to 0.03125 μg/mL). Each plate was covered with a lid and incubated at 37 °C for 16 h. The optical density measurements were measured at 600 nm using a 96-well UV–vis plate reader (MultiSkan GO, Thermo Scientific). The MIC values were taken as the lowest concentration that had no bacterial growth. MIC assays for each compound were performed in triplicate to ensure reproducibility.

[2] = test system: Staphylococcus aureus (MSSA) ATCC 29213; experiment: microbe, parasite or virus in culture; conditions: ATCC 29213, 16 h
Description: as §1, §2, §3, §4, §5

[3] = test system: Staphylococcus aureus (MRSA) ATCC 700698; experiment: microbe, parasite or virus in culture; conditions: ATCC 700698, 16 h
Description: as §1, §2, §3, §4, §5

[4] = test system: Escherichia coli ATCC 10798; experiment: microbe, parasite or virus in culture; conditions: ATCC 10798, 16 h
Description: as §1, §2, §3, §4, §5

[5] = test system: Staphylococcus epidermidis ATCC 14990; experiment: microbe, parasite or virus in culture; conditions: ATCC 14990, 16 h
Description: as §1, §2, §3, §4, §5

[6] = test system: Gram-positive bacteria tested; conditions: 16 h
Description: as §1, §2, §3, §4
Aliquots of the 20 mg/mL peptide stock solutions were diluted to make a 64 μg/mL solution in Mueller-Hinton broth containing 0.002% polysorbate 80 and a 64 μg/mL solution in brain heart infusion broth containing 0.002% polysorbate 80. The solutions were mixed by pipetting to ensure homogeneity. A 200-μL aliquot of a 64 μg/mL solution was transferred to a 96-well plate. 2-fold serial dilutions were made with media containing 0.002% polysorbate 80 across the 96-well plate to achieve a final volume of 100 μL in each well (initial concentrations ranging from 64 to 0.0625 μg/mL). […] The optical density measurements were measured at 600 nm using a 96-well UV–vis plate reader (MultiSkan GO, Thermo Scientific). […]

all bacteria tested = experiment: MIC broth microdilution assay, summary over all bacteria; conditions: concentration range tested up to 32 μg/mL
Description: as §1, §2, §3
as §4, with “After overnight incubation, each culture was diluted with the appropriate media (containing 0.002% polysorbate 80) to 1 × 10^6 colony-forming units (CFU)/mL as previously described.[12],[15],[16]” left out, “Cultures were further diluted to achieve 1 × 10^6 CFU/mL solutions.” left out
Aliquots of the 20 mg/mL peptide stock solutions were diluted to make a 64 μg/mL solution in Mueller-Hinton broth containing 0.002% polysorbate 80 and a 64 μg/mL solution in brain heart infusion broth containing 0.002% polysorbate 80. […] The optical density measurements were measured at 600 nm using a 96-well UV–vis plate reader (MultiSkan GO, Thermo Scientific). […]

MIC B. subtilis [1]	MIC Bacillus subtilis ATCC 6051 [1]	MIC Staphylococcus aureus (MSSA) ATCC 29213 [2]	MIC Staphylococcus aureus (MRSA) ATCC 700698 [3]	MIC Escherichia coli ATCC 10798 [4]	MIC Staphylococcus epidermidis ATCC 14990 [5]	MIC values against the Gram-positive bacteria tested [6]	Structure (SMILES)	fold reduced activity compared to the unswapped analogues 1, 2, 6, and 7 [6]	antibiotic activity in words against all bacteria tested (all bacteria tested)
≤ 0.0625 µg/mL	≤0.0313 µg/mL	2 µg/mL (≈ 1.64 µM)	2 µg/mL (≈ 1.64 µM)	>32 µg/mL	1 µg/mL (≈ 0.822 µM)	–	CC[C@H](C)[C@H](NC(=O)[C@@H](Cc1ccccc1)NC)C(=O)N[C@@H](CO)C(=O)N[C@H](CCC(N)=O)C(=O)N[C@@H](C(=O)N[C@H](C(=O)N[C@@H](CO)C(=O)N[C@H]1C(=O)N[C@@H](C)C(=O)N[C@@H](CCCCN)C(=O)N[C@@H]([C@@H](C)CC)C(=O)O[C@H]1C)[C@@H](C)CC)[C@@H](C)CC [compound 1, Lys10-teixobactin] (H-[dNMeF]IS[dQ][d(aIle)]IS[dT]AKI; ester 8-C)	–	–
≤ 0.0625 µg/mL	≤0.0313 µg/mL	2 µg/mL (≈ 1.64 µM)	1 to 2 µg/mL	>32 µg/mL	1 µg/mL (≈ 0.822 µM)	–	CC[C@H](C)[C@H](NC(=O)[C@@H](Cc1ccccc1)NC)C(=O)N[C@@H](CO)C(=O)N[C@H](CCC(N)=O)C(=O)N[C@@H](C(=O)N[C@H](C(=O)OC[C@H](N)C(=O)N[C@H]1C(=O)N[C@@H](C)C(=O)N[C@@H](CCCCN)C(=O)N[C@@H]([C@@H](C)CC)C(=O)O[C@H]1C)[C@@H](C)CC)[C@@H](C)CC [compound 2, [Ile6-O-Ser7],Lys10-teixobactin] (I: H-[dNMeF]IS[dQ][d(aIle)]I / II: H-S[dT]AKI; ester I:C-II:1, II:2-II:C)	–	–
–	4 µg/mL (≈ 3.29 µM)	8 µg/mL (≈ 6.58 µM)	8 µg/mL (≈ 6.58 µM)	>32 µg/mL	4 µg/mL (≈ 3.29 µM)	4 to 8 µg/mL	CC[C@H](C)[C@H](NC(=O)[C@H](CO)NC(=O)[C@@H](NC(=O)[C@@H](Cc1ccccc1)NC)[C@@H](C)CC)C(=O)N[C@@H](CCC(N)=O)C(=O)N[C@H](C(=O)OC[C@H](N)C(=O)N[C@H]1C(=O)N[C@@H](C)C(=O)N[C@@H](CCCCN)C(=O)N[C@@H]([C@@H](C)CC)C(=O)O[C@H]1C)[C@@H](C)CC [compound 3, Ile4,Gln5,[Ile6-O-Ser7],Lys10-teixobactin] (I: H-[dNMeF]ISIQI / II: H-S[dT]AKI; ester I:C-II:1, II:2-II:C)	2–4 fold	–
–	≥32 µg/mL	>32 µg/mL	>32 µg/mL	>32 µg/mL	>32 µg/mL	–	CC[C@H](C)[C@H](NC(=O)[C@H](Cc1ccccc1)NC)C(=O)N[C@@H](CO)C(=O)N[C@H](C(=O)N[C@@H](CCC(N)=O)C(=O)N[C@H](C(=O)OC[C@H](N)C(=O)N[C@H]1C(=O)N[C@@H](C)C(=O)N[C@@H](CCCCN)C(=O)N[C@@H]([C@@H](C)CC)C(=O)O[C@H]1C)[C@@H](C)CC)[C@@H](C)CC [compound 4, N-Me-L-Phe1,Ile4,Gln5,[Ile6-O-Ser7],Lys10-teixobactin] (I: H-[NMeF]ISIQI / II: H-S[dT]AKI; ester I:C-II:1, II:2-II:C)	–	virtually inactive
